# Assay results from patent publication US10988459B2 (priority 2015, dated 2021).
# Biological target: human RIP1 kinase domain (2-375) (Homo sapiens (Human), UniProt Q13546)
# Experiment: biochemical
# Assay type: biochemical
# Details: Table 1; apparent Ki (Morrison tight-binding fit); 50 nM RIP1 kinase domain, 50 uM ATP, 2 hours incubation; read-out: RIP1 Ki
# Summary of the method: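 Ki^app comes from Morrison tight-binding fits of fractional activity versus compound concentration. Activity was read as ADP production, via tracer displacement lowering fluorescence polarization (633 nm laser). Conditions: 2 h, 50 nM insect-cell-expressed enzyme, 50 uM ATP, 30 mM MgCl2, 1 mM DTT, 0.5% DMSO, pH 7.5 Hepes.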
# Sequence of human RIP1 kinase domain (2-375) (Q13546 2-375): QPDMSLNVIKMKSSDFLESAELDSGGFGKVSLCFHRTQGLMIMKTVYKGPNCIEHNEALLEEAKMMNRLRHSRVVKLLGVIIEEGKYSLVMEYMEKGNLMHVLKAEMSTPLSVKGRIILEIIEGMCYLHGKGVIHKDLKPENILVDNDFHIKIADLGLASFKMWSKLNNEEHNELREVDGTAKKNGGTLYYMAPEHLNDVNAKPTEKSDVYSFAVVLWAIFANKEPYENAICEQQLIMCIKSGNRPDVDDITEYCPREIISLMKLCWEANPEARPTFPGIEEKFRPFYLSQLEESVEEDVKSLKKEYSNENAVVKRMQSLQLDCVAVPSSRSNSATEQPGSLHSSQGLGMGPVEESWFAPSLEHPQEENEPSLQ
row,SMILES,Ki [nM]
1,"CN1C(=O)[C@@H](NC(=O)c2n[nH]c3c2C2CC2CC3)COc2ccccc21 (stereo partly drawn) [Example 59, N-((S)-5-methyl-4-oxo-2,3,4,5-tetrahydrobenzo[b][1,4]oxazepin-3-yl)-3,4,5,5a,6,6a-hexahydrocyclopropa[e]indazole-1-carboxamide]",1700
2,"CN1C(=O)[C@@H](NC(=O)c2ncc3n2CC(C(F)(F)F)CC3)COc2ccccc21 (stereo partly drawn) [Example 36, N—((S)-5-methyl-4-oxo-2,3,4,5-tetrahydrobenzo[b][1,4]oxazepin-3-yl)-6-(trifluoromethyl)-5,6,7,8-tetrahydroimidazo[1,5-a]pyridine-3-carboxamide]",185

# Same assay, conditions: Table 5; apparent Ki (Morrison tight-binding fit); 50 nM RIP1 kinase domain, 50 uM ATP, 2 hours incubation; read-out: Ki
row,Ki [nM],SMILES
1,142,"CN1C(=O)[C@@H](NC(=O)c2ncn(Cc3ccccc3)n2)CCn2nc(CN3CC(F)C3)cc21 [Example 782, (S)-1-benzyl-N-(2-((3-fluoroazetidin-1-yl)methyl)-4-methyl-5-oxo-5,6,7,8-tetrahydro-4H-pyrazolo[1,5-a][1,3]diazepin-6-yl)-1H-1,2,4-triazole-3-carboxamide]"
2,207,"CC(C)[C@H]1CCCc2nc(C(=O)N[C@H]3COc4cc(F)cc(F)c4NC3=O)nn21 (single isomer, unassigned) [Example 717]"
3,70,"CN1C(=O)C(NC(=O)c2ncn(Cc3ccccc3)n2)CCn2nc(-c3ccn(C)n3)cc21 (racemic) [Example 777, 1-benzyl-N-(4-methyl-2-(1-methyl-1H-pyrazol-3-yl)-5-oxo-5,6,7,8-tetrahydro-4H-pyrazolo[1,5-a][1,3]diazepin-6-yl)-1H-1,2,4-triazole-3-carboxamide]"

# Same assay, conditions: human RIP1 kinase domain (2-375), 50 uM ATP, 2 hours incubation, Transcreener ADP assay; read-out: RIP1 Ki
row,Ki [nM],SMILES
1,766,"O=C(NC1CCn2ncc3c2N(CCO3)C1=O)c1nnc(Cc2ccccc2)[nH]1 (stereo not shown) [Example 199, 5-benzyl-N-(6-oxo-4,5,6,7,8,9-hexahydro-3-oxa-1,5a,9a-triazabenzo[cd]azulen-7-yl)-4H-1,2,4-triazole-3-carboxamide]"
2,34.6,"CN1C(=O)[C@@H](NC(=O)c2nnc(Cc3cccc(F)c3F)[nH]2)CCn2nccc21 [Example 99, (S)-5-(2,3-difluorobenzyl)-N-(4-methyl-5-oxo-5,6,7,8-tetrahydro-4H-pyrazolo[1,5-a][1,3]diazepin-6-yl)-4H-1,2,4-triazole-3-carboxamide]"
3,193,"CN1C(=O)[C@@H](NC(=O)c2n[nH]c3c2CC(CC(F)(F)F)OC3)COc2ccccc21 (stereo partly drawn) [Example 210, N—((S)-5-methyl-4-oxo-2,3,4,5-tetrahydrobenzo[b][1,4]oxazepin-3-yl)-5-(2,2,2-trifluoroethyl)-1,4,5,7-tetrahydropyrano[3,4-c]pyrazole-3-carboxamide]"
4,4500,"CN1C(=O)[C@@H](NC(=O)c2n[nH]c3c2C[C@@H](C(F)(F)F)CC3)COc2c1cnn2C [Example 188, (S)—N—((S)-1,4-dimethyl-5-oxo-4,5,6,7-tetrahydro-1H-pyrazolo[3,4-b][1,4]oxazepin-6-yl)-5-(trifluoromethyl)-4,5,6,7-tetrahydro-1H-indazole-3-carboxamide]"
5,22.9,"Cc1cc2n(n1)CC[C@H](NC(=O)c1ncn(Cc3ccccc3)n1)C(=O)N2C [Example 172, (S)-1-benzyl-N-(2,4-dimethyl-5-oxo-5,6,7,8-tetrahydro-4H-pyrazolo[1,5-a][1,3]diazepin-6-yl)-1H-1,2,4-triazole-3-carboxamide]"
6,167,"CN1C(=O)[C@@H](NC(=O)c2n[nH]c3ccc(C#N)cc23)COc2ccccc21 [Example 83, (S)-5-cyano-N-(5-methyl-4-oxo-2,3,4,5-tetrahydrobenzo[b][1,4]oxazepin-3-yl)-1H-indazole-3-carboxamide]"

# Same assay, conditions: human RIP1 kinase domain (2-375), Transcreener ADP assay, 50 uM ATP, 2 hours incubation; read-out: RIP1 Ki
row,Ki [nM],SMILES
1,210,"CN1C(=O)C(NC(=O)c2ncn(CC3CCC3)n2)CCn2nc(C3CC3)cc21 (stereo not shown) [Example 256, 1-(cyclobutylmethyl)-N-(2-cyclopropyl-4-methyl-5-oxo-5,6,7,8-tetrahydro-4H-pyrazolo[1,5-a][1,3]diazepin-6-yl)-1H-1,2,4-triazole-3-carboxamide]"
2,61.2,"CC(c1cnc2[nH]nc(C(=O)N[C@H]3COc4ccccc4N(C)C3=O)c2c1)C(F)(F)F (stereo partly drawn) [Example 296, N—((S)-5-methyl-4-oxo-2,3,4,5-tetrahydrobenzo[b][1,4]oxazepin-3-yl)-5-(1,1,1-trifluoropropan-2-yl)-1H-pyrazolo[3,4-b]pyridine-3-carboxamide]"
3,74,"CN1C(=O)[C@@H](NC(=O)c2cc3c(cn2)COC32CCOCC2)COc2ccccc21 [Example 299, (S)—N-(5-methyl-4-oxo-2,3,4,5-tetrahydrobenzo[b][1,4]oxazepin-3-yl)-2′,3′,5′,6′-tetrahydro-3H-spiro[furo[3,4-c]pyridine-1,4′-pyran]-6-carboxamide]"
4,20.8,"CN1C(=O)[C@@H](NC(=O)c2ncn(Cc3ccccc3)n2)CCn2cncc21 [Example 297, (S)-1-benzyl-N-(1-methyl-2-oxo-2,3,4,5-tetrahydro-1H-imidazo[1,5-a][1,3]diazepin-3-yl)-1H-1,2,4-triazole-3-carboxamide]"
5,93.6,"Cc1cc2n(n1)CC[C@H](NC(=O)c1ncn(C(C)c3ccccc3)n1)C(=O)N2C (stereo partly drawn) [Example 271, N—((S)-2,4-dimethyl-5-oxo-5,6,7,8-tetrahydro-4H-pyrazolo[1,5-a][1,3]diazepin-6-yl)-1-(1-phenylethyl)-1H-1,2,4-triazole-3-carboxamide]"

# Same assay, conditions: tight-binding apparent inhibition constant; human RIP1 kinase domain (2-375) 50 nM, 50 uM ATP, 2 hours; read-out: Ki
row,Ki [nM],SMILES
1,9,"CN1C(=O)[C@@H](NC(=O)c2nc3n(n2)[C@@H](c2ccccc2F)CC3)CCn2nccc21 [Example 465, (R)-5-(2-fluorophenyl)-N—((S)-4-methyl-5-oxo-5,6,7,8-tetrahydro-4H-pyrazolo[1,5-a][1,3]diazepin-6-yl)-6,7-dihydro-5H-pyrrolo[1,2-b][1,2,4]triazole-2-carboxamide]"
2,5,"O=C(N[C@H]1CCc2cc(F)cc(F)c2NC1=O)c1nc2n(n1)[C@@H](c1ccccc1)CC2 [Example 622, (5R)-5-phenyl-N-[(3S)-7,9-difluoro-2-oxo-1,3,4,5-tetrahydro-1-benzazepin-3-yl]-6,7-dihydro-5H-pyrrolo[1,2-b][1,2,4]triazole-2-carboxamide]"
3,26.6,"C[C@@H](c1ccc(F)cc1)n1cnc(C(=O)N[C@H]2CCn3nc(C4CC4)cc3N(C)C2=O)n1 (racemic) [Example 670, N-[rac-(6S)-2-cyclopropyl-4-methyl-5-oxo-7,8-dihydro-6H-pyrazolo[1,5-a][1,3]diazepin-6-yl]-1-[rac-(1S)-1-(4-fluorophenyl)ethyl]-1,2,4-triazole-3-carboxamide]"
4,71,"Cc1cc2n(n1)CC[C@H](NC(=O)c1ncc3cnn(-c4c(F)cccc4F)c3n1)C(=O)N2C [Example 609, 1-(2,6-difluorophenyl)-N-[(6S)-2,4-dimethyl-5-oxo-7,8-dihydro-6H-pyrazolo[1,5-a][1,3]diazepin-6-yl]pyrazolo[3,4-d]pyrimidine-6-carboxamide]"
5,9.4,"O=C(N[C@H]1COc2cc(F)cc(F)c2NC1=O)c1nc2n(n1)CCO[C@H]2c1ccccc1 [Example 640, (8S)-8-phenyl-N-[(3S)-6,8-difluoro-4-oxo-3,5-dihydro-2H-1,5-benzoxazepin-3-yl]-6,8-dihydro-5H-[1,2,4]triazolo[5,1-c][1,4]oxazine-2-carboxamide]"
6,240,"CN1C(=O)[C@@H](NC(=O)c2nc3n(n2)CCC32CCOCC2)COc2ccccc21 [Example 634, N-[(3S)-5-methyl-4-oxo-2,3-dihydro-1,5-benzoxazepin-3-yl]spiro[5,6-dihydropyrrolo[1,2-b][1,2,4]triazole-7,4′-tetrahydropyran]-2-carboxamide]"
7,45,CN1C(=O)[C@@H](NC(=O)c2ncn(Cc3cccc(Cl)c3)n2)CCn2nc(C(F)(F)F)cc21 [Example 533]
8,43,"CN1C(=O)[C@H](NC(=O)c2ncn(Cc3ccccc3F)n2)CCn2ccnc21 [Example 601, 1-[(2-fluorophenyl)methyl]-N-(7R)-9-methyl-8-oxo-6,7-dihydro-5H-imidazo[1,2-a][1,3]diazepin-7-yl-1,2,4-triazole-3-carboxamide]"

# Further lines, the compound ahead of its results:
row,SMILES,Ki [nM]
1,"CN1C(=O)[C@@H](NC(=O)c2nc3n(n2)[C@@H](c2cnn(C)c2)CCC3)COc2ccccc21 (racemic) [Example 407, (R)-5-(1-methyl-1H-pyrazol-4-yl)-N—((S)-5-methyl-4-oxo-2,3,4,5-tetrahydrobenzo[b][1,4]oxazepin-3-yl)-5,6,7,8-tetrahydro-[1,2,4]triazolo[1,5-a]pyridine-2-carboxamide]",54.9
2,"CN1C(=O)[C@@H](NC(=O)c2nc3n(n2)C(C2CCCCC2)CCC3)CCn2nccc21 (stereo partly drawn) [Example 381, 5-cyclohexyl-N—((S)-4-methyl-5-oxo-5,6,7,8-tetrahydro-4H-pyrazolo[1,5-a][1,3]diazepin-6-yl)-5,6,7,8-tetrahydro-[1,2,4]triazolo[1,5-a]pyridine-2-carboxamide]",282
3,"CN1C(=O)[C@@H](NC(=O)c2nc3n(n2)[C@@H](c2ccccc2)CCC3)CCn2nccc21 (racemic) [Example 385, (R)—N—((S)-4-methyl-5-oxo-5,6,7,8-tetrahydro-4H-pyrazolo[1,5-a][1,3]diazepin-6-yl)-5-phenyl-5,6,7,8-tetrahydro-[1,2,4]triazolo[1,5-a]pyridine-2-carboxamide]",24.4
4,"CCC[C@H]1CCCc2nc(C(=O)N[C@H]3COc4ccccc4N(C)C3=O)nn21 (racemic) [Example 415, (S)—N—((S)-5-methyl-4-oxo-2,3,4,5-tetrahydrobenzo[b][1,4]oxazepin-3-yl)-5-propyl-5,6,7,8-tetrahydro-[1,2,4]triazolo[1,5-a]pyridine-2-carboxamide]",12.6
